# Source: ChEMBL document CHEMBL1157457, “Alstilobanines A-E, new indole alkaloids from Alstonia angustiloba” (2008)
# Tested on: Aorta
# Assay: Vasorelaxation activity against phenylephrine-stimulated contraction in Wistar rat thoracic aorta at 30 uM
# Format: functional
# Set-up: scale not given: the % may be the effect or the level left
row,Structure (SMILES),Activity [%]
1,"COC(=O)[C@@]1(c2cc3ccccc3[nH]2)COCC=C2CN(C)CC[C@@H]21 [6,7-SECO-ANGUSTILOBINE B]",7
2,COC(=O)[C@]1(CO)c2[nH]c3ccccc3c2[C@@H](C)[C@]2(O)CNCC[C@@H]21 [ALSTILOBANINE A],44.3
3,COC(=O)[C@@]12COCC[C@H]3[C@@H]1CC[N@@+](C)([O-])[C@H]3c1c2[nH]c2ccccc12 [ALSTILOBANINE B],21.2
4,COC(=O)[C@@]12COCC[C@@H]3[C@@H](NCC[C@@H]31)c1c2[nH]c2ccccc12 [ALSTILOBANINE C],28
5,COC(=O)[C@@]1(c2cc3ccccc3[nH]2)COCC=C2C[N@+](C)([O-])CC[C@@H]21 [ALSTILOBANINE D],10
6,COC(=O)[C@@]12COC[C@H](c3c1[nH]c1ccccc31)[C@]1(O)CNCC[C@@H]12 [ALSTILOBANINE E],6.8
7,O=C(O)[C@@]12COCC=C3CN(CC[C@@H]31)Cc1c2[nH]c2ccccc12 [ALSTONAMIC ACID],35
8,COC(=O)[C@]12COCC[C@@H]3[C@H](c4c1[nH]c1ccccc41)N(C)CC[C@@H]32 [UNDULIFOLINE],33.3
